# How the values were obtained:
# [1] = test system: organotypic hippocampal slice cultures (OHSCs); experiment: NMDA-induced excitotoxicity in organotypic hippocampal slice cultures, propidium iodide (PI) uptake; assay type: cell-based, rat
# Description: To test the neuroprotective qualities of test media, OHSCs were first preincubated with PI for 24 hours. Fluorescent photomicrographs were taken, and used to determine the level of background staining. OHSCs were then transferred to test media one hour before 10 μM NMDA was added. Photomicrographs were taken again after 24 hours of NMDA exposure, and the change in PI staining intensity was quantified.
# Rat organotypic hippocampal slice cultures (400 μm thick) were prepared from P9 Sprague-Dawley rats, using the method of Stoppini and coworkers^9. OHSCs were cultured in slice medium (50% BME, 25% EBSS, 23% horse serum, 7.5 mg/ml D-glucose, 1 mM L-glutamine and 25 U/ml PEST) for 12-14 days before experiments commenced.
# OHSCs were transferred to test media one hour before exposure to 10 μM NMDA for 24 h. The degree of NMDA-induced excitotoxicity was determined by comparing propidium iodide (PI) uptake prior to exposure with that following exposure. Pictures were captured using a digital camera (Olympus DP50) coupled to an inverted fluorescence microscope (Olympus IX70), equipped with a red long-pass WG fluorescence filter. Uptake of PI was quantified as the mean pixel intensity of epifluorescence, over the whole slice, or in defined sub-regions (ImageJ v1.29x).
# [2] = test system: cells in the dentate gyrus of OHSCs; experiment: Immunofluorescence count of dentate gyrus cells double-labelled for PI and DCX or NeuN after NMDA; assay type: cell-based, rat
# Description: To determine the cell types which were protected by pentinin, we fixed OHSCs and performed immunofluorescence for markers of neuronally committed progenitors (DCX) and neurons (NeuN). Cells in the dentate gyrus were counted, and the percentage of cells double-labelled for PI and each marker was determined.
# To characterise cell death, OHSCs were cultured in N2 medium with different concentrations of NMDA (in the presence of PI). After 24 h, OHSCs were washed in PBS and fixed in 4% paraformaldehyde (overnight, 4° C.). OHSCs were blocked and permeabilised by incubation for two hours in PTS (0.1M sodium phosphate buffer, 0.3% triton X-100 and 1% donkey serum (Jackson Immunoresearch Laboratories Inc., West Grove, Pa.)) at room temperature (RT), then incubated overnight (rocking, 4° C.) with mouse anti-NeuN antibody (1:500, Chemicon International Inc, Temecula, Calif.), rabbit anti-Caspase3A antibody (1:250, Cell Signalling Technology), and goat anti doublecortin antibody (Dcx, 1:400, Santa Cruz Biotechnology, Santa Cruz, USA). After thorough washing (3×30 mins in PTS, rocking), OHSCs were incubated overnight (rocking, 4° C.) with donkey anti-mouse Alexa 647-conjugated antibody (1:800, Molecular Probes, Leiden, Netherlands), donkey anti-rabbit Alexa 488-conjugated antibody (1:800, Molecular Probes) and donkey anti-goat Alexa 488-conjugated antibody (1:800, Molecular Probes). OHSCs were washed thoroughly and mounted in Prolong Gold mounting medium (Molecular Probes). Colocalisation of PI and/or Caspase3A staining with NeuN and Dcx immunofluorescence was determined by confocal microscopy (Leica TCS SP2, Leica Microsystems AG, Wetzlar, Germany).
# [3] = test system: organotypic hippocampal slice cultures (OHSCs); details: high doses, literature ref 10; cited from earlier work
Molecule,effect on excitotoxicity induced by NMDA ([1]; 100 μM peptide in unconditioned medium),"effective dose in dose response assay ([1]; synthetic peptide added to unconditioned medium, results not shown) [µM]",reduction of percentage of immature neuronal marker (DCX) cells co-labelled with PI ([2]; 100 pM pentinin) [%],reduction of percentage of mature neuronal marker (NeuN) cells co-labelled with PI ([2]; 100 pM pentinin) [%],number of neurons killed by NMDA-induced toxicity ([2]; 100 pM synthetic pentinin),"effect on NMDA-induced excitotoxicity / PI staining (in words) ([1]; whole slice, 10 μM NMDA 24 h, GDNF at 1 ng/ml where added)",doses at which neuroprotective in OHSCs [3] [ng/mL]
"tyr, thr, pro, lys, thr (YTPKT; Human) [pentinin, pentameric peptide fragment corresponding to residues 26-30 of the insulin B chain]",reduce excitotoxicity,100,86,64,markedly reduced,–,–
"glial-derived neurotrophic factor (protein, UniProt P39905 78-211, looked up, recombinant protein added to control medium at 1 ng/ml) Glial cell line-derived …: SPDKQMAVLPRRERNRQAAAANPENSRGKGRRGQRGKNRGCVLTAIHLNVTDLGLGYETKEELIFRYCSGSCDAAETTYDKILKNLSRNRRLVSDKVGQACCRPIAFDDDLSFLDDNLVYHILRKHSAKRCGCI",–,–,–,–,–,did not reduce excitotoxicity,50 to 100

# — patent publication US20090099095A1, “Novel neuroprotective peptide” (priority 2007, published 2009)
